Consider nine molecules from patent US20150336943A1, “NOVEL BENZODIOXANE-PIPERIDINE DERIVATIVES AND THEIR THERAPEUTIC APPLICATIONS FOR TREATING NEUROPSYCHIATRIC DISORDERS” (PIERRE FABRE MEDICAMENT, priority 2013, published 2015).

The target in assay [1] is T1, dopaminergic receptor D2 (Homo sapiens, UniProt P14416).
T1 construct: expressed in transfected cells; host or cells: recombinant human cells (so in the source)
Briefly: Inhibition constants (Ki) for dopaminergic receptor D2 in recombinant cells. The format is binding. The following applies: read-out: pKi D2 (converted). The method, then:
(§1) Compounds of formula 1 have been evaluated in vitro as ligands for dopaminergic and noradrenergic receptors and modulators of the activity of these receptors according to the invention in recombinant human cells expressing the receptors. The inhibition constants (Ki) were measured for dopaminergic receptors D2 and D3, and for adrenergic receptors alpha2A, alpha2B and alpha2C, according to the described methods (Newman-Tancredi A, Assie M B, Martel J C, Cosi C, Slot L B, Palmier C, Rauly-Lestienne I, Colpaert F, Vacher B, Cussac D. F15063, a potential antipsychotic with D2/D3 antagonist, 5-HT 1A agonist and D4 partial agonist properties. I. In vitro receptor affinity and efficacy profile. Br J Pharmacol., 2007, 151:237-252). The intrinsic activity of the products for the D2 receptor was measured (Bruins Slot L A, De Vries L, Newman-Tancredi A, Cussac D. Differential profile of antipsychotics at serotonin 5-HT1A and dopamine D2S receptors coupled to extracellular signal-regulated kinase. Eur J Pharmacol, 2006, 534; 63-70. The results obtained for some of these compounds are presented in the following table.

In assay [2] the target is T2, dopaminergic receptor D3 (Homo sapiens, UniProt P35462).
T2 construct: expressed in transfected cells; host or cells: recombinant human cells (so in the source)
Briefly: Inhibition constants (Ki) for dopaminergic receptor D3 in recombinant cells. The format is binding. The following applies: read-out: pKi D3 (converted). The method, then:
as §1

Assay [3] deals with T3, adrenergic receptor alpha2A (Homo sapiens, UniProt P08913).
T3 construct: expressed in transfected cells; host or cells: recombinant human cells (so in the source)
T3 sequence (P08913 1-465): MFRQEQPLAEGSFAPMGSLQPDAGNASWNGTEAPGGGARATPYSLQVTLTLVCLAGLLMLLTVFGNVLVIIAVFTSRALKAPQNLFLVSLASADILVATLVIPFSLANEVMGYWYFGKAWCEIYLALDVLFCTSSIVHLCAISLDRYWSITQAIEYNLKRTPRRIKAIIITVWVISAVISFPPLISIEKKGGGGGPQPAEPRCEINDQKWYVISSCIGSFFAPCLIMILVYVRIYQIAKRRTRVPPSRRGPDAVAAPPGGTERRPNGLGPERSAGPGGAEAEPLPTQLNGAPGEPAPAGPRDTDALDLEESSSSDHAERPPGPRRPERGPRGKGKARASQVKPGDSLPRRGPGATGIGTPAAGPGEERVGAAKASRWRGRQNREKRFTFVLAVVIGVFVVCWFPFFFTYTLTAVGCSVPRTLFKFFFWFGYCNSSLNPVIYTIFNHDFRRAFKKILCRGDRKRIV
Briefly: Inhibition constants (Ki) for adrenergic receptor alpha2A in recombinant cells. The following applies: read-out: pKi α2A (converted). In kind it is binding. The method, then: as §1

In assay [4] the target is T4, adrenergic receptor alpha2B (Homo sapiens, UniProt P18089).
T4 construct: expressed in transfected cells; host or cells: recombinant human cells (so in the source)
T4 sequence (P18089 1-450): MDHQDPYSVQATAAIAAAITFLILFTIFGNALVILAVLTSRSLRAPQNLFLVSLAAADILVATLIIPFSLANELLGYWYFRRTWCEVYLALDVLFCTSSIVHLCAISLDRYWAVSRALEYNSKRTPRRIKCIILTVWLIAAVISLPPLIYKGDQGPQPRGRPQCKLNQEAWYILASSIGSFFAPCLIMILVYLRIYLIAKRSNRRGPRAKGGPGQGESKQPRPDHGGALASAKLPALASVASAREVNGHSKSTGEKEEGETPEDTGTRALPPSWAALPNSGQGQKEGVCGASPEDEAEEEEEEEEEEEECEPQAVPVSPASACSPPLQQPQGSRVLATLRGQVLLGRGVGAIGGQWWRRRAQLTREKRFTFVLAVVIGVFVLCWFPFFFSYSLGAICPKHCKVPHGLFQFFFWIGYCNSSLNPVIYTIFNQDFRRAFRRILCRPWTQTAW
Kind of assay: Inhibition constants (Ki) for adrenergic receptor alpha2B in recombinant cells. The format is binding. The following applies: read-out: pKi α2B (converted). As for the experimental part:
as §1

Assay [5] deals with T5, adrenergic receptor alpha2C (Homo sapiens, UniProt P18825).
T5 construct: expressed in transfected cells; host or cells: recombinant human cells (so in the source)
T5 sequence (P18825 1-462): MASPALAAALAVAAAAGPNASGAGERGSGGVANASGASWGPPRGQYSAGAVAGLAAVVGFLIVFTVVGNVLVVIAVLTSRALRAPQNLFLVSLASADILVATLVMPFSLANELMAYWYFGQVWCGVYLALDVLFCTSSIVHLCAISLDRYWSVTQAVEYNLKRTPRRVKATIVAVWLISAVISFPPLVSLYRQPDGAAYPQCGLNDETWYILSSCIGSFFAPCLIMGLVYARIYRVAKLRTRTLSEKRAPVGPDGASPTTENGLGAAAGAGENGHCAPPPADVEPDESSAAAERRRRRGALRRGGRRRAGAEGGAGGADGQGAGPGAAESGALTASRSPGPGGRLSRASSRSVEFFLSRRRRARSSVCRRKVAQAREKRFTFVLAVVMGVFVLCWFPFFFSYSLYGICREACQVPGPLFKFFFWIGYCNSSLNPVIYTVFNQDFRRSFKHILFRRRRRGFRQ
Briefly: Inhibition constants (Ki) for adrenergic receptor alpha2C in recombinant cells. In kind it is binding. As to conditions: read-out: pKi α2C (converted). The method, then:
as §1

Assay [6] deals with T6, D2 receptor (Homo sapiens, UniProt P14416).
T6 construct: expressed in transfected cells; host or cells: recombinant human cells (so in the source)
Briefly: Intrinsic (agonist) activity at the D2 receptor. In kind it is cell-based. As for the experimental part: The prior art mentions, for benzodioxane-piperidine derivatives bearing an amide, a urea or an imidazolidinone, as non-selective alpha2-antagonists (WO 97/28157, WO 98/02435); some of these products also have a weak affinity for the D2 dopaminergic receptor (T. Imbert, J. Med. Chem, 2000, 43: 3653-3664). […] Activity as a D2 and D3 receptor agonist was determined according to the described methods (Bruins Slot L A, De Vries L, Newman-Tancredi A, Cussac D. Differential profile of antipsychotics at serotonin 5-HT1A and dopamine D2S receptors coupled to extracellular signal-regulated kinase. Eur J Pharmacol, 2006, 534; 63-70; Bruins Slot L A, Palmier C, Tardif S, Cussac D. Action of novel antipsychotics at human dopamine D3 receptors coupled to G protein and ERK1/2 activation. Neuropharmacology, 2007, 53: 232-241) for the following compounds, such as described in WO 97/28157 and WO 98/02435; • 1-benzyl-3-(2-(1-((2,3-dihydrobenzo[b][1,4]dioxin-2-yl)methyl)piperidin-4-yl)ethyl)imidazolidin-2-one • 1-(2-(1-((2,3-dihydrobenzo[b][1,4]dioxin-2-yl)methyl)piperidin-4-yl)ethyl)-3-methylimidazolidin-2-one • 1-(2,6-dichlorophenyl)-3-(2-(1-((2,3-dihydrobenzo[b][1,4]dioxin-2-yl)methyl)piperidin-4-yl)ethyl)imidazolidin-2-one • 1-(2-(1-((2,3-dihydrobenzo[b][1,4]dioxin-2-yl)methyl)piperidin-4-yl)ethyl)-3-(pyridin-4-yl)imidazolidin-2-one • 3-(2-(1-((2,3-dihydrobenzo[b][1,4]dioxin-2-yl)methyl)piperidin-4-yl)ethyl)-1-phenylimidazolidine-2,4-dione • (S)—N-(2-(1-((2,3-dihydrobenzo[b][1,4]dioxin-2-yl)methyl)piperidin-4-yl)ethyl)-[1,1′-biphenyl]-4-carboxamide • (S)—N-(2-(1-((2,3-dihydrobenzo[b][1,4]dioxin-2-yl)methyl)piperidin-4-yl)ethyl)-4-(1H-pyrrol-1-yl)benzamide • (S)—N-(2-(1-((2,3-dihydrobenzo[b][1,4]dioxin-2-yl)methyl)piperidin-4-yl)ethyl)-4-(pyridin-4-yl)benzamide • (S)—N-(2-(1-((2,3-dihydrobenzo[b][1,4]dioxin-2-yl)methyl)piperidin-4-yl)ethyl)-4-(pyridin-3-yl)benzamide • (S)—N-(2-(1-((2,3-dihydrobenzo[b][1,4]dioxin-2-yl)methyl)piperidin-4-yl)ethyl)-9-oxo-9H-fluorene-1-carboxamide.
as §1

Assay [7] relates to MK-801-induced hyperactivity. Briefly: MK-801-induced hyperactivity test in mice. As to conditions: Mus musculus. The format is in vivo.

T1 sequence (P14416 whole entry): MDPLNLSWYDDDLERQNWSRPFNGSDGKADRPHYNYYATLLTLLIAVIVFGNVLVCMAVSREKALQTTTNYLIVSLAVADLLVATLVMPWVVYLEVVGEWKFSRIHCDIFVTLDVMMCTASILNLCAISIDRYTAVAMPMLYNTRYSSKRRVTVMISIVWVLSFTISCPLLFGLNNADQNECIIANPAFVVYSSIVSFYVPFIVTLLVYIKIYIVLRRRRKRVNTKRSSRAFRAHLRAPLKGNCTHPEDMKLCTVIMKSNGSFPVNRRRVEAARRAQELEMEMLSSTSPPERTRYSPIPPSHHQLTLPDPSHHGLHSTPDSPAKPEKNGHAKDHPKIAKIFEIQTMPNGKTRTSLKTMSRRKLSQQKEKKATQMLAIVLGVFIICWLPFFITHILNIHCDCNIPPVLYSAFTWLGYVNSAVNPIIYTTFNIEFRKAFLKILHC
T2 sequence (P35462 whole entry): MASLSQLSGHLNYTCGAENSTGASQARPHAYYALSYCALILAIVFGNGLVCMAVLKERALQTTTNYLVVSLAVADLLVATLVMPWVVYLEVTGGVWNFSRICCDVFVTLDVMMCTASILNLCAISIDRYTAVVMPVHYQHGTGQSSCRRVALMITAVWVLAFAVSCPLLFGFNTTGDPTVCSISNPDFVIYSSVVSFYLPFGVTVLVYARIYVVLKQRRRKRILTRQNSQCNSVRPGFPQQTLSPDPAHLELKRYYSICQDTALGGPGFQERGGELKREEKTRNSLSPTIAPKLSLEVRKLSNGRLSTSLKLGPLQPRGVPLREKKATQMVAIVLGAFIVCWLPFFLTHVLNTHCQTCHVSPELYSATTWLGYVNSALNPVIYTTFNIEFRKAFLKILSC
T6 sequence (P14416 1-414 isoform P14416-2): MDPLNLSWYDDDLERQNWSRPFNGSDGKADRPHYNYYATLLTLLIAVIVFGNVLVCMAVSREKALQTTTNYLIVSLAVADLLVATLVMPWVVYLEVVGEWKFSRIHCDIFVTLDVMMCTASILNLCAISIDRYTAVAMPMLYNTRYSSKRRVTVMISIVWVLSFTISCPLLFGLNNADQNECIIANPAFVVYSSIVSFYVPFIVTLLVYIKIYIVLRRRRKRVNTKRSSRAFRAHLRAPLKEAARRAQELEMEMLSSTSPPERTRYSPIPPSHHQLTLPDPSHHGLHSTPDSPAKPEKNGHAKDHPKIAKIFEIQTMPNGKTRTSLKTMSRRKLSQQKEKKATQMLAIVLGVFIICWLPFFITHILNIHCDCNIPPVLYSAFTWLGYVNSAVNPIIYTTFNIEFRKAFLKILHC

As for `O=C1OCCN1CCC1CCN(C[C@H]2COc3c(Cl)cc(F)cc3O2)CC1` [Example 13, (S)-3-(2-(1-((5-chloro-7-fluoro-2,3-dihydrobenzo[b][1,4]dioxin-2-yl)methyl)piperidin-4-yl)ethyl)oxazolidin-2-one], the Ki in assay [1] is 0.955 nM; in assay [2] it was 0.603 nM; in assay [3], 7.08 nM; in assay [4], 2.57 nM; in assay [5] it was 0.955 nM. Further, in assay [6], the “I.A.: Intrinsic activity on receptor D2 in vitro” value (“I.A.: Intrinsic activity” below) is listed as 16 percentage of that of dopamine. The molecule further had an ED50 in assay [7] of 0.04 mg/kg.

As to `O=C1OC[C@@H](CO)N1CCC1CCN(C[C@H]2COc3c(Cl)cc(F)cc3O2)CC1` [Example 63, (R)-3-(2-(1-(((S)-5-chloro-7-fluoro-2,3-dihydrobenzo[b][1,4]dioxin-2-yl)methyl)piperidin-4-yl)ethyl)-4-(hydroxymethyl)oxazolidin-2-one], the Ki in assay [1] is 3.09 nM; in assay [2], 1.32 nM; in assay [3], 53.7 nM; in assay [4] it was 8.32 nM; in assay [5], 2.69 nM. Also, the “I.A.: Intrinsic activity” value in assay [6] was 5 percentage of that of dopamine. Moreover, it took a dose of 0.2 mg/kg to reach the 50% effect level in assay [7] (ED50).

In the case of `O=C1OC[C@H](Cc2ccccc2)N1CCC1CCN(C[C@H]2COc3ccc(OC(F)(F)F)cc3O2)CC1` [Example 32, (S)-4-benzyl-3-(2-(1-(((S)-7-(trifluoromethoxy)-2,3-dihydrobenzo[b][1,4]dioxin-2-yl)methyl)piperidin-4-yl)ethyl)oxazolidin-2-one], the Ki in assay [1] was 1.26 nM; in assay [2], 0.355 nM; in assay [3] it was 15.1 nM; in assay [4], 18.2 nM; in assay [5], 6.61 nM. In assay [7], this molecule returned an ED50 of 2.4 mg/kg.

`O=C1OC[C@H](Cc2ccccc2)N1CCC1CCN(C[C@H]2COc3ccc(Br)cc3O2)CC1` [Example 26, (S)-4-benzyl-3-(2-(1-(((S)-7-bromo-2,3-dihydrobenzo[b][1,4]dioxin-2-yl)methyl)piperidin-4-yl)ethyl)oxazolidin-2-one]: the Ki in assay [1] is 0.891 nM; in assay [2] it was 0.447 nM; in assay [3], 34.7 nM; in assay [4], 9.55 nM; in assay [5], 2.04 nM. Moreover, the “I.A.: Intrinsic activity” value in assay [6] is reported as 8 percentage of that of dopamine. This molecule gave an ED50 in assay [7] of 0.9 mg/kg.

With `O=C1OC[C@H](Cc2ccccc2)N1CCC1CCN(C[C@H]2COc3cc(O)ccc3O2)CC1` [Example 36], the Ki in assay [1] was 2.14 nM; in assay [2], 1.29 nM; in assay [3] it was 6.03 nM; in assay [4] it was 1.17 nM; in assay [5], 0.562 nM. This molecule also had a median effective dose (ED50) in assay [7] of 3.4 mg/kg.

For the molecule `O=C1OCCN1CCC1CCN(C[C@H]2COc3c(F)cc(F)cc3O2)CC1` [Example 10, (S)-3-(2-(1-((5,7-difluoro-2,3-dihydrobenzo[b][1,4]dioxin-2-yl)methyl)piperidin-4-yl)ethyl)oxazolidin-2-one], the Ki in assay [1] was 4.57 nM; in assay [2] it was 1.55 nM; in assay [3], 4.57 nM; in assay [4] it was 0.813 nM; in assay [5] it was 0.537 nM. In addition, the “I.A.: Intrinsic activity” value in assay [6] is 6 percentage of that of dopamine. The molecule further showed an ED50 in assay [7] of 0.13 mg/kg.

As for `O=C1COCCN1CCC1CCN(C[C@H]2COc3c(F)cc(Cl)cc3O2)CC1` [Example 94, (S)-4-(2-(1-((7-chloro-5-fluoro-2,3-dihydrobenzo[b][1,4]dioxin-2-yl)methyl)piperidin-4-yl)ethyl)morpholin-3-one], the Ki in assay [1] was 1.66 nM; in assay [2], 0.347 nM; in assay [3], 5.37 nM; in assay [4], 4.47 nM; in assay [5] it was 0.617 nM. In addition, in assay [6], the “I.A.: Intrinsic activity” value is given as 0 percentage of that of dopamine. Besides, it took a dose of 0.19 mg/kg to reach the 50% effect level in assay [7] (ED50).

As for `O=C1OC[C@@H](CO)N1CCC1CCN(C[C@H]2COc3c(F)cc(Cl)cc3O2)CC1` [Example 62, (R)-3-(2-(1-(((S)-7-chloro-5-fluoro-2,3-dihydrobenzo[b][1,4]dioxin-2-yl)methyl)piperidin-4-yl)ethyl)-4-(hydroxymethyl)oxazolidin-2-one], the Ki is 1.58 nM in assay [1]; 0.347 nM in assay [2]; 30.9 nM in assay [3]; 10.5 nM in assay [4]; 1.62 nM in assay [5]. The “I.A.: Intrinsic activity” value in assay [6] was 0 percentage of that of dopamine. For the same molecule, the 50% effect level in assay [7] (ED50) was put at a dose of 2.1 mg/kg.

Take `N#Cc1ccc2c(c1)O[C@@H](CN1CCC(CCN3CCOCC3=O)CC1)CO2` [Example 85, (S)-3-((4-(2-(3-oxomorpholino)ethyl)piperidin-1-yl)methyl)-2,3-dihydrobenzo[b][1,4]dioxine-6-carbonitrile]: the Ki is 19.1 nM in assay [1]; 1.23 nM in assay [2]; 57.5 nM in assay [3]; 81.3 nM in assay [4]; 6.76 nM in assay [5]. The molecule further showed an ED50 in assay [7] of 0.5 mg/kg.

A word on the ED50: it is the midpoint of the dose-response relation. High values mean weaker potency, low ones greater potency.
